Results: patent publication US11414436B2, “Non-coordinating anion type activators containing cation having large alkyl groups” (ExxonMobil Chemical Patents Inc., priority 2018, dated 2022)
Where “and” joins values, the source holds several entries; their conditions need not be identical. Equal entries are not always repeated.

Tests used:
[1] = Ethylene-octene copolymerization (EO) in parallel pressure reactor, MCN-1 (Table 6); conditions: MCN-1 = 20 nmol, activator = 22 nmol, 1-octene 100 μL, 80° C., 75 PSI
Method: (§1) Ethylene-Octene Copolymerization (EO).
(§2) A pre-weighed glass vial insert and disposable stirring paddle were fitted to each reaction vessel of the reactor, which contains 48 individual reaction vessels. The reactor was then closed and purged with ethylene. Each vessel was charged with enough solvent (typically isohexane) to bring the total reaction volume, including the subsequent additions, to the desired volume, typically 5 mL. 1-octene, if required, was injected into the reaction vessel and the reactor was heated to the set temperature and pressurized to the predetermined pressure of ethylene, while stirring at 800 rpm. The aluminum compound (such as tri-n-octylaluminum) in toluene was then injected as scavenger followed by addition of the activator solution (typically 1.0-1.2 molar equivalents).
(§3) The catalyst (and activator solutions for Run A) were all prepared in toluene. The catalyst solution (typically 0.020-0.080 μmol of metal complex) was injected into the reaction vessel and the polymerization was allowed to proceed until a pre-determined amount of ethylene (quench value typically 20 psi) had been used up by the reaction. Alternatively, the reaction may be allowed to proceed for a set amount of time (maximum reaction time typically 30 minutes). Ethylene was added continuously (through the use of computer controlled solenoid valves) to the autoclaves during polymerization to maintain reactor gauge pressure (P setpt, +/−2 psig) and the reactor temperature (T) was monitored and typically maintained within +/−1° C. The reaction was quenched by pressurizing the vessel with compressed air. After the reactor was vented and cooled, the glass vial insert containing the polymer product and solvent was removed from the pressure cell and the inert atmosphere glove box, and the volatile components were removed using a Genevac HT-12 centrifuge and Genevac VC3000D vacuum evaporator operating at elevated temperature and reduced pressure. The vial was then weighed to determine the yield of the polymer product. The resultant polymer was analyzed by Rapid GPC (see below) to determine the molecular weight, by FT-IR (see below) to determine percent octene incorporation, and by DSC (see below) to determine melting point (Tm).
A series of ethylene-octene polymerizations were performed in the parallel pressure reactor according to a similar procedure as described above. In these studies rac-dimethylsilyl-bis(indenyl)hafnium dimethyl (MCN-1) was used along with ammonium borate activators.

[2] = Ethylene homopolymerization (PE) in parallel pressure reactor, MCN-1; conditions: MCN-1 = 20 nmol, activator = 22 nmol, 80° C., 75 PSI
Method: Ethylene homopolymerization (PE).
A series of ethylene polymerizations were performed in the parallel pressure reactor sinilar to the procedure described above. In these studies rac-dimethylsilyl- bis(indenyl)hafnium dimethyl (MCN-1) was used along with ammonium borate activators .

[3] = Ethylene-octene copolymerization in parallel pressure reactor, non-metallocene catalyst CAT-2; conditions: catalyst CAT-2 20 nmol; activator 1.1 equiv; 100° C.; 135 psi; 1-octene 100 uL; TNOAL 0.5 umol
Method: (§4) Solutions of the metal complexes and activators were prepared in a drybox using toluene or methylcyclohexane. Concentrations were typically 0.2 mmol/L. Tri-n-octylaluminum (TNOAL, neat, AkzoNobel) was typically used as a scavenger. Concentration of the TNOAL solution in toluene ranged from 0.5 to 2.0 mmol/L.
(§5) Polymerizations were carried out in a parallel pressure reactor, as generally described in U.S. Pat. Nos. 6,306,658; 6,455,316; 6,489,168; WO 00/09255; and Murphy, V. et al. (2003) “A Fully Integrated High-Throughput Screening Methodology for the Discovery of New Polyolefin Catalysts: Discovery of a New Class of High Temperature Single-Site Group (IV) Copolymerization Catalysts,” J. Am. Chem. Soc., v. 125, pp. 4306-4317, each of which is fully incorporated herein by reference. […] Although the specific quantities, temperatures, solvents, reactants, reactant ratios, pressures, and other variables are frequently changed from one polymerization run to the next, the following describes a typical polymerization performed in a parallel pressure reactor.
as §1, §2, §3
(§6) Equivalence is determined based on the mole equivalents relative to the moles of the transition metal in the catalyst complex.
(§7) Activators of the present disclosure can also be used for activating non-metallocene catalysts for polymerization of olefins. Table 4 illustrates copolymerization of ethylene and octene using activators of the present disclosure and non-metallocene catalysts (CAT-1, CAT-2, CAT-3, and CAT-4).

[4] = Ethylene-octene copolymerization in parallel pressure reactor, non-metallocene catalyst CAT-1; conditions: catalyst CAT-1 20 nmol; activator 1.1 equiv; 100° C.; 135 psi; 1-octene 100 uL; TNOAL 0.5 umol
Method: as §4, §5, §1, §2, §3, §6, §7

[5] = Ethylene-octene copolymerization in parallel pressure reactor, non-metallocene catalyst CAT-3; conditions: catalyst CAT-3 20 nmol; activator 1.1 equiv; 100° C.; 135 psi; 1-octene 100 uL; TNOAL 0.5 umol
Method: as §4, §5, §1, §2, §3, §6, §7

[6] = Solubility studies of the activators (saturated solution in isohexane or methylcyclohexane); format: physicochemical
Method: Solubility Studies of the Activators
Procedure for Solid Activators.
A saturated solution of each of the solid ammonium borate activators was prepared by stirring an excess of the activator with either isohexane or methylcyclohexane solvent for several hours at 25° C. The mixture was then filtered and a known volume of the filtrate was evaporated to dryness in a tared vial. The vial was then weighed to determine the mass of activator that was dissolved in the aliquot. The concentration of the saturated solution is presented in millimoles of activator per liter of solution (mM).
Procedure for Activators that Form Emulsions.
A saturated solution of the activator was prepared by slowly adding the solvent to a pre-weighed amount of the activator. The final volume was determined as the minimum amount of solvent required to convert the emulsion into a homogeneous solution. The concentration of the saturated solution is presented in millimoles of activator per liter of solution (mM). Alternatively, an emulsion of the activator was prepared by adding the solvent to an excess amount of activator. The resulting emulsion was separated from the undissolved solids by decanting the emulsion into a tared vial. Solvent was then added dropwise until the emulsion became homogeneous. The mass of the final solution was measured and then the solvent was evaporated to dryness to obtain the mass of the activator. The concentration of the saturated solution is presented in millimoles of activator per liter of solution (mM).

[7] = as above; format: physicochemical; conditions: methylcyclohexane
[8] = Ethylene-octene copolymerization in parallel pressure reactor, non-metallocene catalyst CAT-4; conditions: catalyst CAT-4 20 nmol; activator 1.1 equiv; 100° C.; 135 psi; 1-octene 100 uL; TNOAL 0.5 umol
Method: as §4, §5, §1, §2, §3, §6, §7

[9] = Propylene homopolymerization in parallel pressure reactor, MCN-1 with ammonium borate activators; conditions: for activity: isohexane
Text: Polymerization in Parallel Pressure Reactor
Solvents, polymerization-grade toluene, and isohexane were supplied by ExxonMobil Chemical Company and purified by passing through a series of columns: two 500 cc Oxyclear cylinders in series from Labclear (Oakland, Calif.), followed by two 500 cc columns in series packed with dried 3 Å mole sieves (8-12 mesh; Aldrich Chemical Company), and two 500 cc columns in series packed with dried 5 Å mole sieves (8-12 mesh; Aldrich Chemical Company). 1-octene (C8) and 1-hexene (C6) (98%, Aldrich Chemical Company) were dried by stirring over NaK overnight followed by filtration through basic alumina (Aldrich Chemical Company, Brockman Basic 1).
as §4, §5
Catalyst systems dissolved in solution were used in the polymerization examples below, unless specified otherwise.
RUN A: Propylene Homopolymerization (PP).
The reactor was prepared as described above and purged with propylene. For the examples in Table 2, the catalyst and activator solutions were prepared in toluene. […] Isohexane was then injected into each vessel at room temperature followed by a predetermined amount of propylene gas. The reactor was heated to the set temperature while stirring at 800 rpm, and the scavenger, activator and catalyst solutions were injected sequentially to each vessel. The polymerization was allowed to proceed as described previously.
A series of propylene polymerizations were performed in parallel pressure reactors (PPRs) developed by Symyx Technologies, Inc. In these polymerizations, the metallocene rac-dimethylsilyl-bis(indenyl)hafnium dimethyl (MCN-1) was used along with several different ammonium borate activators. Polymerizations were performed at 85° C. and 100° C.
Propylene homopolymerization (PP).
A series of propylene polymerizations were performed in the parallel pressure reactor similar to the procedure described above. In these studies rac-dimethylsilyl-bis(indenyl)hafnium dimethyl (MCN-1) was used along with ammonium borate activators.

[10] = propylene, 100 °C, 150 psi, MCN-1 = 20 nmol, activator = 20 nmol, TNOAL 500 nmol

Row | Molecule | activity [1] | activity [2] | activity [3] | activity [4] | activity [5] | activity [8] | activity [9, 10] | other results
1 | CCCCCCCCCCCCCCCCCC[NH+](C)c1ccc(CCCCCCCCCCC)cc1.Fc1c(F)c(F)c2c(F)c([B-](c3c(F)c(F)c4c(F)c(F)c(F)c(F)c4c3F)(c3c(F)c(F)c4c(F)c(F)c(F)c(F)c4c3F)c3c(F)c(F)c4c(F)c(F)c(F)c(F)c4c3F)c(F)c(F)c2c1F [UOMAH-BF28, 4-Undecyl-N-methyl-N-octadecylanilinium-BF28] | 366.1 kg/mmol/h and 358.9 kg/mmol/h | 250.9 kg/mmol/h and 186.5 kg/mmol/h | – | – | – | – | – | –
2 | N-methyl-4-nonadecyl-N-octadecylanilinium tetrakis(pentafluorophenyl)borate [NOMAH-BF20] | 430.9 kg/mmol/h and 414.1 kg/mmol/h and 478.7 kg/mmol/h and 409.6 kg/mmol/h | 215.4 kg/mmol/h and 237.5 kg/mmol/h and 399.2 kg/mmol/h and 340.1 kg/mmol/h | – | – | – | – | – | –
3 | CCCCCCCCCCCCCCCCCC[NH+](CCCCCCCCCCCCCCCCCC)c1ccc(C)cc1.Fc1c(F)c(F)c([B-](c2c(F)c(F)c(F)c(F)c2F)(c2c(F)c(F)c(F)c(F)c2F)c2c(F)c(F)c(F)c(F)c2F)c(F)c1F [DOdTH-BF20, 4-methyl-N,N-dioctadecylbenzenaminium-BF20] | – | – | 1267 kg/mmol/h and 1154 kg/mmol/h | 3716 kg/mmol/h and 3736 kg/mmol/h | 647 kg/mmol/h and 732 kg/mmol/h | 46 kg/mmol/h and 48 kg/mmol/h | – | Solubility limit in i-hexane (mM at 25° C.) ([6]; isohexane): 19 mM; Solubility limit in i-hexane (wt % at 25° C.) ([6]; isohexane): 3.7 wt %; Solubility limit in MeCy (mM at 25° C.) ([6]; methylcyclohexane): 110 mM; Solubility limit in MeCy (wt % at 25° C.) [7]: 19 wt %
4 | Di(hydrogenated tallow)methylamine-BF28 [M2HTH-BF28] | – | – | 620 kg/mmol/h and 352 kg/mmol/h | 2494 kg/mmol/h and 1709 kg/mmol/h | 825 kg/mmol/h and 863 kg/mmol/h | 48 kg/mmol/h and 65 kg/mmol/h | 49 kg/mmol/h and 60 kg/mmol/h and 96 kg/mmol/h | activity ([9]; Activator Equiv 1.0, TNOAL 0.25 umol, MCN-1 30 nmol, 85° C., propylene 135 psi): 187 kg/mmol/h and 167 kg/mmol/h and 160 kg/mmol/h; activity ([9]; Activator Equiv 1.0, TNOAL 0.50 umol, MCN-1 30 nmol, 85° C., propylene 135 psi): 151 kg/mmol/h and 113 kg/mmol/h and 118 kg/mmol/h; activity ([9]; Activator Equiv 1.0, TNOAL 0.75 umol, MCN-1 30 nmol, 85° C., propylene 135 psi): 102 kg/mmol/h and 95 kg/mmol/h; activity ([9]; Activator Equiv 1.2, TNOAL 0.25 umol, MCN-1 30 nmol, 85° C., propylene 135 psi): 203 kg/mmol/h and 195 kg/mmol/h and 166 kg/mmol/h; activity ([9]; Activator Equiv 1.2, TNOAL 0.50 umol, MCN-1 30 nmol, 85° C., propylene 135 psi): 169 kg/mmol/h and 153 kg/mmol/h; activity ([9]; Activator Equiv 1.2, TNOAL 0.75 umol, MCN-1 30 nmol, 85° C., propylene 135 psi): 119 kg/mmol/h and 104 kg/mmol/h; activity ([9]; Activator Equiv 1.4, TNOAL 0.25 umol, MCN-1 30 nmol, 85° C., propylene 135 psi): 204 kg/mmol/h and 196 kg/mmol/h and 178 kg/mmol/h; activity ([9]; Activator Equiv 1.4, TNOAL 0.50 umol, MCN-1 30 nmol, 85° C., propylene 135 psi): 157 kg/mmol/h and 142 kg/mmol/h; activity ([9]; Activator Equiv 1.4, TNOAL 0.75 umol, MCN-1 30 nmol, 85° C., propylene 135 psi): 127 kg/mmol/h and 103 kg/mmol/h; activity ([9]; Activator Equiv 1.6, TNOAL 0.25 umol, MCN-1 30 nmol, 85° C., propylene 135 psi): 229 kg/mmol/h and 203 kg/mmol/h and 180 kg/mmol/h; activity ([9]; Activator Equiv 1.6, TNOAL 0.50 umol, MCN-1 30 nmol, 85° C., propylene 135 psi): 168 kg/mmol/h and 144 kg/mmol/h; activity ([9]; Activator Equiv 1.6, TNOAL 0.75 umol, MCN-1 30 nmol, 85° C., propylene 135 psi): 129 kg/mmol/h and 117 kg/mmol/h; average catalyst activity, comparison of the four activators (FIG. 6) ([9]; MCN-1, polypropylene at 100° C., Table 7 runs): much lower activity; activity ([9]; propylene, 85 °C, 135 psi, MCN-1 = 20 nmol, activator = 20 nmol, TNOAL 500 nmol): 75 kg/mmol/h and 55 kg/mmol/h
5 | Di(hydrogenated tallow)methylamine-BF20 [M2HTH-BF20] | – | – | 806 kg/mmol/h and 755 kg/mmol/h | 2030 kg/mmol/h and 2214 kg/mmol/h | 711 kg/mmol/h and 786 kg/mmol/h | 51 kg/mmol/h and 63 kg/mmol/h | 46 kg/mmol/h and 30 kg/mmol/h and 36 kg/mmol/h | –
